Laboratory results published in PMC8780978, “Antiplatelet and Antithrombotic Effects of Isaridin E Isolated from the Marine-Derived Fungus via Downregulating the PI3K/Akt Signaling Pathway” (Marine Drugs, 2021).
Where a SMILES comes first, the peptide text is derived from it. [ ]: non-standard residue; d: D form. ξ: configuration not given here. ξLac(3-iPr) = CC(C)CC(O)C(=O)O; NMeV = CN[C@H](C(=O)O)C(C)C; βAla = NCCC(=O)O

Assays:
washed mouse platelets [1] = assay: Thrombin-induced platelet aggregation; type: cell-based; details: thrombin 0.02 U/mL, p > 0.05
Procedure: (§1) Washed platelets were prepared as previously described by Zhongren Ding et al.. Whole blood was collected from the abdominal aorta using a syringe containing 3.8% sodium citrate (9:1, V/V) as an anticoagulant. Citrated blood (2 mL) was centrifuged at room temperature at 300× g for 2 min to obtain platelet-rich plasma (PRP). Platelets were obtained by the further centrifugation of PRP at 700× g for 2 min, and resuspended in Tyrode’s buffer (138 mM of NaCl, 2.7 mM of KCl, 1 mM of MgCl2, 3 mM of NaH2PO4, 5 mM of glucose, 10 mM of HEPES, pH 7.4) with 0.02 U/mL apyrase (A6410, Sigma-Aldrich, St. Louis, MO, USA) to a density of 3 × 10^8 of platelets/mL for use.
The platelet aggregation and release assay were performed as previously reported. […] The platelet aggregation was assessed using a lumi-aggregometer (700-2, Chrono-Log, Havertown, PA, USA) with a stirring speed of 1200 rpm at 37 °C. The release of ATP was simultaneously monitored using Luciferin/luciferase reagent (395, Chrono-Log, Havertown, PA, USA). Aggregation traces and ATP release traces were monitored continuously for at least 10 min.

[2] = Hematologic parameters after single intragastric dose; type: in vivo, mice; details: 3 h
Procedure: Mice were intragastrically administrated with a single dose of isaridin E (100 mg/kg) or vehicle at 3 h before anesthesia. Whole blood was drawn from the abdominal aorta and collected in K2EDTA anticoagulant tubes to evaluate the hematologic parameters with an automatic hematology analyzer (BC-2800 vet, Mindray, Shenzhen, China). The citrated blood was centrifuged at 1500× g (25 °C) for 15 min to obtain the platelet-poor plasma (PPP). PPP was then used to measure the coagulation parameters, including ATPP, PT, TT, and FIB, with an automated coagulation analyzer (RAC-030, Rayto, Shenzhen, China).

[3] = FeCl3-induced carotid artery thrombosis mouse model; type: in vivo, C57BL/6J mice
Procedure: The mouse model of carotid artery thrombosis induced by FeCl3 injury was performed and monitored by a stereoscopic fluorescence microscope as previously described. […] Mice were then anesthetized with a single dose of sodium pentobarbital (60 mg/kg, i.p., Sigma-Aldrich, St. Louis, MO, USA). Rhodamine 6G (83697, Sigma-Aldrich, St. Louis, MO, USA; 0.5 mg/mL) was injected into the right jugular vein to label platelets. The carotid artery (CA) was carefully exposed, and a black "U"-shaped plastic (3 mm) was inserted under the CA gently to block background fluorescence. Filter papers (1 × 2 mm) with 7.5% saturated FeCl3 solution were applied topically for 1 min, and thrombus formation in the injured CA was recorded in real time using a stereoscopic fluorescence microscope (M205FA, Leica, Wetzlar, Germany) for 12 min.

PI3K = assay: ADP-induced phosphorylation of PI3K, Western blot; type: cell-based, human; details: 50 μM, Meg-01 cells
Procedure: Western blotting was performed as described in our previous study. Meg-01 cells were lysed with protein lysis buffer (P0013, Beyotime Biotechnology, Haimen, China) containing a protease inhibitor cocktail (539131, Millipore, Billerica, MA, USA) and phosphatase inhibitor cocktail (K1012, APExBIO, Houston, TX, USA). The samples (20 μg) were then separated by 8% SDS-PAGE gel and transferred onto PVDF membranes. The PDVF membranes were incubated with primary antibodies at 4 °C for 12 h. After incubating with the appropriate HRP-conjugated secondary antibodies (7076, 7074, Cell Signaling Technology, Danvers, MA, USA), blots were detected with chemiluminescent HRP substrate (P90719, Millipore, Billerica, MA, USA) using the ChemiDoc XRS+ system (BIO-RAD, Hercules, CA, USA). Primary antibodies against the following antigens were listed: PI3K (4257, Cell Signaling Technology, Danvers, MA, USA), Phospho-PI3K (ab226842, Abcam, Cambridge, UK), Akt (4691, Cell Signaling Technology, Danvers, MA, USA), Phospho-Akt (4056, Cell Signaling Technology, Danvers, MA, USA), and β-actin (66009-1, Proteintech, Rosemont, IL, USA).

Tail-bleeding assay = assay: Tail-bleeding assay
Procedure: Mice were assigned randomly to […] and intragastrically administrated with a single dose of vehicle, isaridin E (12.5, 25, 50, or 100 mg/kg), or clopidogrel (10 mg/kg) at 3 h before the cutting-tail experiment. Tails were transected at a distal margin of 5 mm and were immediately immersed into 10 mL of saline at 37 °C. The bleeding time was recorded as when the observed bleeding ceased.

[4] = design: method as in PMID 21438588; details: cited from earlier work
human neutrophils = test system: human neutrophils; design: method as in PMID 23822585; details: cited from earlier work
washed mouse platelets [5] = assay: ADP-induced platelet ATP release (luciferin/luciferase); type: cell-based; details: ADP 5 μM
Procedure: as §1
The platelet aggregation and release assay were performed as previously reported. Washed mouse platelets were treated with isaridin E (6.25, 12.5, 25, 50, 100, or 200 μM) or vehicle or clopidogrel (20 μM) at 37 °C for 30 min, followed by stimulation with ADP (01905, Sigma-Aldrich, St. Louis, MO, USA, 5 μM), collagen (C7661, Sigma-Aldrich, St. Louis, MO, USA, 1 μg/mL) or thrombin (T6884, Sigma-Aldrich, St. Louis, MO, USA, 0.02 U/mL). The platelet aggregation was assessed using a lumi-aggregometer (700-2, Chrono-Log, Havertown, PA, USA) with a stirring speed of 1200 rpm at 37 °C. The release of ATP was simultaneously monitored using Luciferin/luciferase reagent (395, Chrono-Log, Havertown, PA, USA). Aggregation traces and ATP release traces were monitored continuously for at least 10 min.

[6] = 100 mg/kg single gavage, n=5 mice

In the case of `CC(C)CC1OC(=O)CCNC(=O)[C@H](C(C)C)N(C)C(=O)[C@H](C(C)C)N(C)C(=O)[C@H](Cc2ccccc2)NC(=O)[C@@H]2CCCN2C1=O` (stereo partly drawn) [Isaridin E, cyclo-[(OH) (S)-HMPA^1-L-Pro^2-L-Phe^3-N-Me-L-Val^4-N-Me-L-Val^5-β-Ala^6(CO)]] (cyclo(F[NMeV][NMeV][βAla][ξLac(3-iPr)]P)), the “maximum platelet aggregation in response to thrombin” value (washed mouse platelets [1]) is reported as “no significant differences”, the “HCT (hematocrit)” value [2, 6] is reported as 39.5 ± 1.4% and the “LY % (lymphocyte percentage)” value [2, 6] is reported as 83.1 ± 2.5%. For the same compound, the “MCH (mean red blood cell hemoglobin)” value [2, 6] was 17.3 ± 0.4 pg, the “MCHC (mean red blood cell hemoglobin concentration)” value [2, 6] was 330 ± 8 g/L and the “MCV (mean red blood cell volume)” value [2, 6] was 51.1 ± 0.8 fL. The “MO % (monocyte percentage)” value [2, 6] was 2.7 ± 0.6%, the “MPV (mean platelet volume)” value [2, 6] was 5.3 ± 0.3 fL and the “NE % (neutrophil percentage)” value [2, 6] was 14.8 ± 2.2%. The “PLT (platelet count)” value [2, 6] was 1233 ± 65 10^9/L, the “RBC (red blood cell)” value [2, 6] was 7.8 ± 0.3 10^12/L and the “RDW (red cell distribution width)” value [2, 6] was 15.2 ± 0.5%. For the same compound, the “WBC (white blood cell)” value [2, 6] was 3.3 ± 0.5 10^9/L, the “hematological parameters versus NS- and vehicle-treated groups” value ([2]; 100 mg/kg single intragastric administration) was “no significant differences” and the maximum thrombus size ([3]; 12.5, 25, 50, or 100 mg/kg oral gavage at 1, 24, 48 h before FeCl3 injury, at 12 min, dose-dependent) was “reduced”. For the same compound, the “time to the first thrombus formation” value ([3]; 12.5, 25, 50, or 100 mg/kg oral gavage at 1, 24, 48 h before FeCl3 injury, dose-dependent) was “significantly prolonged”, the “antithrombotic effects relative to clopidogrel at 10 mg/kg” value ([3]; 50 or 100 mg/kg) was “comparable to that of clopidogrel” and the “ADP-induced phosphorylation of PI3K” value (PI3K; 30 min, ADP 5 μM 5 min) was “significantly suppressed”. For the same compound, the “total protein expression of PI3K” value (PI3K) was “without altering”, the “tail bleeding time versus vehicle control” value (Tail-bleeding assay; 12.5, 25, 50 or 100 mg/kg, single intragastric dose 3 h before, n = 5 mice) was “no obvious effects” and the “bleeding time compared with clopidogrel (10 mg/kg)” value (Tail-bleeding assay; isaridin E 12.5-100 mg/kg) was “significantly reduced”. The insecticidal activity [4] was “insecticidal activity”, the “cytotoxicity in human neutrophils” value (human neutrophils) was “without cytotoxicity” and the “elastase release induced by FMLP” value (human neutrophils; human neutrophils) was “inhibiting”. The “superoxide anion generation induced by FMLP” value (human neutrophils; human neutrophils) was “inhibiting”, the “ADP-induced platelet ATP release, % of vehicle control” value (washed mouse platelets [5]; 6.25 μM) was 60.7 ± 7.9% and the “ADP-induced platelet ATP release, % of vehicle control” value (washed mouse platelets [5]; 12.5 μM) was 31.7 ± 4.8%. The IC50 (washed mouse platelets [5]; Mus musculus, Platelet, read-out: IC50 inhibiting ADP-induced platelet ATP release) was 7.9 ± 1.1 µM.
